ChEMBL document CHEMBL3885861, “Open TG-GATES”

Species: Rattus norvegicus
Experiment: Open TG-GATES - Regimen: Single
Type: toxicity, organism-based, Sprague-Dawley
Parameters: regimen Single, gender Male, age 6 weeks
Details: in vivo, po, 8 mg/kg, route gavage, dose level Low; for APTT / Bas / Eos / Fbg / Hb / Ht / Lym / MCH / MCHC / MCV / Mono / Neu / PT / Plat / RBC / Ret / WBC: tissue Blood; for KIDNEY_L / KIDNEY_R / KIDNEY_TOTAL: tissue Kidney; for LIVER: tissue Liver; for A/G / ALP / ALT / AST / BUN / CRE / Ca / Cl / DBIL / GLC / IP / K / LDH / Na / PL / RALB / TBIL / TC / TG / TP / gamma-GTP: tissue Plasma

NC1=NC(=O)C(c2ccccc2)O1 (configuration not stated) [PEMOLINE]
TERMINAL_BW (3 h): 210.1 g
APTT (3 h): 15.6 s
Bas (3 h): 0%
Eos (3 h): 0.6%
Fbg (3 h): 289.6 mg/dL
Hb (3 h): 13.2 g/dL
Ht (3 h): 38.9%
Lym (3 h): 79.4%
MCH (3 h): 21.9 pg
MCHC (3 h): 34.1%
MCV (3 h): 64.2 fL
Mono (3 h): 3.2%
Neu (3 h): 16.2%
PT (3 h): 13.2 s
Plat (3 h): 112.1 x10_4/uL
RBC (3 h): 605.6 x10_4/ul
Ret (3 h): 9.3%
WBC (3 h): 89 x10_2/uL
KIDNEY_L (3 h): 0.9 g
KIDNEY_R (3 h): 0.9 g
KIDNEY_TOTAL (3 h): 1.8 g
LIVER (3 h): 9 g
A/G (3 h): 1
ALP (3 h): 1585.2 IU/L
ALT (3 h): 44 IU/L
AST (3 h): 83 IU/L
BUN (3 h): 8.2 mg/dL
CRE (3 h): 0.2 mg/dL
Ca (3 h): 10.7 mg/dL
Cl (3 h): 106.2 meq/L
DBIL (3 h): 0.014 mg/dL
GLC (3 h): 174.2 mg/dL
IP (3 h): 7.9 mg/dL
K (3 h): 4.1 meq/L
LDH (3 h): 68.8 IU/L
Na (3 h): 139.6 meq/L
PL (3 h): 126.6 mg/dL
RALB (3 h): 2.7 g/dL
TBIL (3 h): 0.042 mg/dL
TC (3 h): 77 mg/dL
TG (3 h): 45.8 mg/dL
TP (3 h): 5.3 g/dL
gamma-GTP (3 h): 1.4 IU/L
TERMINAL_BW (6 h): 211.2 g
APTT (6 h): 15.8 s
Bas (6 h): 0%
Eos (6 h): 1%
Fbg (6 h): 309 mg/dL
Hb (6 h): 13.5 g/dL
Ht (6 h): 39.8%
Lym (6 h): 75.6%
MCH (6 h): 21.9 pg
MCHC (6 h): 33.9%
MCV (6 h): 64.6 fL
Mono (6 h): 3.4%
Neu (6 h): 19.6%
PT (6 h): 13.1 s
Plat (6 h): 112.7 x10_4/uL
RBC (6 h): 616.4 x10_4/ul
Ret (6 h): 8.9%
WBC (6 h): 81.1 x10_2/uL
KIDNEY_L (6 h): 0.9 g
KIDNEY_R (6 h): 0.9 g
KIDNEY_TOTAL (6 h): 1.8 g
LIVER (6 h): 8.7 g
A/G (6 h): 1
ALP (6 h): 1539 IU/L
ALT (6 h): 44 IU/L
AST (6 h): 80 IU/L
BUN (6 h): 8 mg/dL
CRE (6 h): 0.2 mg/dL
Ca (6 h): 10.7 mg/dL
Cl (6 h): 104.8 meq/L
DBIL (6 h): 0.014 mg/dL
GLC (6 h): 186.2 mg/dL
IP (6 h): 9.9 mg/dL
K (6 h): 3.9 meq/L
LDH (6 h): 56.8 IU/L
Na (6 h): 140.6 meq/L
PL (6 h): 127 mg/dL
RALB (6 h): 2.8 g/dL
TBIL (6 h): 0.042 mg/dL
TC (6 h): 78.4 mg/dL
TG (6 h): 37.4 mg/dL
TP (6 h): 5.5 g/dL
gamma-GTP (6 h): 1.4 IU/L
TERMINAL_BW (9 h): 209.7 g
APTT (9 h): 15.9 s
Bas (9 h): 0%
Eos (9 h): 1%
Fbg (9 h): 319.2 mg/dL
Hb (9 h): 13.3 g/dL
Ht (9 h): 39.2%
Lym (9 h): 77.8%
MCH (9 h): 21.9 pg
MCHC (9 h): 34%
MCV (9 h): 64.2 fL
Mono (9 h): 2.8%
Neu (9 h): 18%
PT (9 h): 13.2 s
Plat (9 h): 117.5 x10_4/uL
RBC (9 h): 611 x10_4/ul
Ret (9 h): 9.2%
WBC (9 h): 91 x10_2/uL
KIDNEY_L (9 h): 0.9 g
KIDNEY_R (9 h): 0.9 g
KIDNEY_TOTAL (9 h): 1.8 g
LIVER (9 h): 7.7 g
A/G (9 h): 1
ALP (9 h): 1372.4 IU/L
ALT (9 h): 40.6 IU/L
AST (9 h): 74.2 IU/L
BUN (9 h): 8.2 mg/dL
CRE (9 h): 0.2 mg/dL
Ca (9 h): 10.4 mg/dL
Cl (9 h): 106 meq/L
DBIL (9 h): 0.012 mg/dL
GLC (9 h): 172.2 mg/dL
IP (9 h): 9.7 mg/dL
K (9 h): 3.9 meq/L
LDH (9 h): 57.4 IU/L
Na (9 h): 140.4 meq/L
PL (9 h): 122.4 mg/dL
RALB (9 h): 2.7 g/dL
TBIL (9 h): 0.044 mg/dL
TC (9 h): 78.4 mg/dL
TG (9 h): 28.4 mg/dL
TP (9 h): 5.3 g/dL
gamma-GTP (9 h): 1.4 IU/L
TERMINAL_BW (24 h): 216.4 g
APTT (24 h): 16.8 s
Bas (24 h): 0%
Eos (24 h): 0.8%
Fbg (24 h): 274.6 mg/dL
Hb (24 h): 13 g/dL
Ht (24 h): 38.4%
Lym (24 h): 77.8%
MCH (24 h): 22.1 pg
MCHC (24 h): 33.9%
MCV (24 h): 65.2 fL
Mono (24 h): 3.4%
Neu (24 h): 17.4%
PT (24 h): 12.9 s
Plat (24 h): 118.4 x10_4/uL
RBC (24 h): 590.2 x10_4/ul
Ret (24 h): 8.1%
WBC (24 h): 88.3 x10_2/uL
KIDNEY_L (24 h): 0.9 g
KIDNEY_R (24 h): 0.9 g
KIDNEY_TOTAL (24 h): 1.9 g
LIVER (24 h): 10 g
A/G (24 h): 1
ALP (24 h): 1622.2 IU/L
ALT (24 h): 43 IU/L
AST (24 h): 70.2 IU/L
BUN (24 h): 15.2 mg/dL
CRE (24 h): 0.2 mg/dL
Ca (24 h): 11 mg/dL
Cl (24 h): 105 meq/L
DBIL (24 h): 0.018 mg/dL
GLC (24 h): 177.8 mg/dL
IP (24 h): 8.2 mg/dL
K (24 h): 3.9 meq/L
LDH (24 h): 61.8 IU/L
Na (24 h): 142.2 meq/L
PL (24 h): 133.8 mg/dL
RALB (24 h): 2.8 g/dL
TBIL (24 h): 0.03 mg/dL
TC (24 h): 76 mg/dL
TG (24 h): 69.4 mg/dL
TP (24 h): 5.6 g/dL
gamma-GTP (24 h): 1 IU/L
